Experimental data reported in PubChem BioAssay (NCI).
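The compound was tested at five concentrations on cells cultured in 96-well plates, with a 48-hour exposure period. GI50 = concentration required for 50% inhibition of growth. TGI: concentration producing complete growth inhibition.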

What was measured:
Assay in all cases: NCI-60 cell line screen, 48 h
UACC-62 melanoma = system: UACC-62 melanoma
NCI-H226 lung = system: NCI-H226 lung
ACHN renal = system: ACHN renal
CAKI-1 renal = system: CAKI-1 renal
NCI-H522 lung = system: NCI-H522 lung
DU-145 prostate = system: DU-145 prostate
MDA-MB-435 = system: MDA-MB-435
SNB-19 CNS = system: SNB-19 CNS
SK-MEL-5 melanoma = system: SK-MEL-5 melanoma
SK-MEL-2 melanoma = system: SK-MEL-2 melanoma

Row | Compound | TGI (UACC-62 melanoma) [µM] | TGI (NCI-H226 lung) [µM] | TGI (ACHN renal) [µM] | TGI (CAKI-1 renal) [µM] | TGI (NCI-H522 lung) [nM] | TGI (DU-145 prostate) [µM] | TGI (MDA-MB-435) [nM] | TGI (SNB-19 CNS) [µM] | TGI (SK-MEL-5 melanoma) [nM] | TGI (SK-MEL-2 melanoma) [µM] | GI50 (UACC-62 melanoma) [nM] | GI50 (NCI-H226 lung) [nM] | GI50 (ACHN renal) [nM] | GI50 (CAKI-1 renal) [nM] | GI50 (NCI-H522 lung) [nM] | GI50 (DU-145 prostate) [nM] | GI50 (MDA-MB-435) [nM] | GI50 (SK-MEL-5 melanoma) [nM] | GI50 (SK-MEL-2 melanoma) [nM] | GI50 (SNB-19 CNS) [nM]
1 | CC(=O)Nc1cc2cc(NS(=O)(=O)c3ccc(Cl)c(Cl)c3)ccc2oc1=O | 62.8 | > 100 | > 100 | 56.4 | 63600 | > 100 | > 100000 | > 100 | 58600 | > 100 | – | – | – | – | – | – | – | – | – | –
2 | C#CC1(O)C(COP(=O)(O)OCC2OC(n3cc(F)c(=O)[nH]c3=O)CC2O)OC(n2ccc(N)nc2=O)C1O (configuration not stated) | 0.372 | > 100 | > 100 | – | > 100000 | > 100 | 181 | > 100 | 41.2 | 5.78 | < 14.1 | < 10 | 46.9 | < 10 | < 10 | < 10 | < 10 | < 10 | 55.2 | –
3 | CCN(CC)CCN1c2nc3ccccc3cc2Sc2cc3ccccc3nc21 | 4.37 | 14.2 | 9.29 | 6.11 | 4100 | 11.3 | 3970 | 11.9 | 2690 | 4.4 | 1770 | 3310 | 2580 | 1800 | 1650 | 3590 | 1800 | 1360 | 1690 | 3030
4 | COc1cc2ncnc(Nc3ccc(Oc4ccnc(C)c4)c(C)c3)c2cc1NC(=O)CC1CCSS1 (configuration not stated) | 3.71 | > 12.9 | 8.48 | > 14.5 | 2190 | 6.31 | 2480 | 2.49 | 1990 | 1.91 | 1260 | 1680 | 1490 | 1310 | 861 | 1440 | 976 | 974 | 904 | 1080
5 | C=C1C(=O)O[C@H]2[C@H]1CC/C(COC(=O)/C=C\C(=O)NCc1ccc(Cn3c(=O)sn(CCI)c3=O)cc1)=C\CC[C@@]1(C)O[C@@H]21 | 3.86 | 49 | 3.74 | 3.03 | 2930 | 13.2 | 8680 | 24.7 | 25700 | 23.4 | 1830 | 20900 | 1930 | 1660 | 1480 | 3610 | 3040 | 12800 | 11100 | 11400
6 | CCC(=O)N1C/C(=C/c2ccc(Br)cc2)C(=O)/C(=C/c2ccc(Br)cc2)C1 | 2.06 | 4.38 | 1.87 | – | 2800 | 3.22 | 1460 | 2.9 | 2450 | 4 | 724 | 1130 | 694 | 1210 | 1400 | 1020 | 524 | 996 | 1930 | 995
